Measurements taken from US8440813B2, “Antiviral nucleoside analogs” (BioCryst Pharmaceuticals, Inc., priority 2007, dated 2013).

CN(C)c1ncnn2c([C@@H]3O[C@H](CO)[C@@H](O)[C@@]3(C)O)ccc12 [Example 2, (2S,3R,4R,5R)-2-(4-(Dimethylamino)pyrrolo[1,2-f][1,2,4]triazin-7-yl)-5-(hydroxymethyl)-3-methyltetrahydrofuran-3,4-diol]
melting point: 181 °C

C=Cc1cc([C@@H]2O[C@H](CO)[C@@H](O)[C@@]2(C)O)n2ncnc(N)c12 [Example 4, (2S,3R,4R,5R)-2-(4-Amino-5-vinylpyrrolo[1,2-f][1,2,4]triazin-7-yl)-5-(hydroxymethyl)-3-methyltetrahydrofuran-3,4-diol]
melting point: 128 to 131 °C
